Results reported in ChEMBL document CHEMBL5512603, “Development of de-novo coronavirus 3-chymotrypsin-like protease (3CLpro) inhibitors since COVID-19 outbreak: A strategy to tackle challenges of persistent virus infection” (Eur J Med Chem, 2024).

What was measured:
[1] = biological target: T1, Replicase polyprotein 1ab (Severe acute respiratory syndrome coronavirus 2, UniProt P0DTD1); assay: Inhibition of SARS-CoV-2 recombinant 3CLpro using fluorogenic substrate (Dabcyl-KTSAVLQ]SGFRK M-E
[2] = biological target: T1, Replicase polyprotein 1ab; assay: Inhibition of SARS-CoV-2 3CLp using fluorescent substrate by FRET assay
SARS-CoV-2 [3] = assay: Antiviral activity against SARS-CoV-2; type: functional, organism-based; conditions: Severe acute respiratory syndrome coronavirus 2
SARS-CoV-2 [4] = assay: Antiviral activity against SARS-CoV-2 infected in African green monkey Vero E6 cells assessed as inhibition of virus induced cytopathic effect by CellTiter-Glo luminescent cell viability assay; type: functional, organism-based; conditions: Severe acute respiratory syndrome coronavirus 2, Vero C1008
[5] = biological target: von Hippel-Lindau disease tumor suppressor-SARS-Cov-2 polyprotein (Severe acute respiratory syndrome coronavirus 2, UniProt P0DTD1+P40337); assay: PROTAC activity at SARS-CoV-2 Main protease/VHL (unknown origin) in SARS-CoV-2 infected african green monkey Vero cell assessed as inhibition of virus-mediated cytopathic effect measured after 72 hrs; type: cell-based
[6] = Cytotoxicity against African green monkey Vero E6 cells; type: toxicity, cell-based, Vero C1008; conditions: chlorocebus sabaeus
[7] = biological target: T1, Replicase polyprotein 1ab; assay: Inhibition of 2019-nCoV-2 3CLp using fluorescent substrate by FRET assay
[8] = biological target: T1, Replicase polyprotein 1ab; assay: Inhibition of recombinant SARS-CoV2 6xHis-tag-Main protease containing modified HRV-3C expressed in Escherichia coli using Mca-AVLQSGFR-K(Dnp)K peptide substrate assessed as fluorescent intensity
SARS-CoV-2 [9] = assay: Antiviral activity against SARS-CoV-2 infected in African green monkey Vero E6 cells at 0.1 MOI assessed as inhibition of virus induced cytopathic effect by CCK8 assay; type: functional, organism-based; conditions: Severe acute respiratory syndrome coronavirus 2, Vero C1008
[10] = Bioavailability in Sprague-Dawley rat at 20 mg/kg, ip; type: ADME, organism-based; conditions: in vivo
[11] = Oral bioavailability in Sprague-Dawley rat at 20 mg/kg; type: ADME, organism-based; conditions: in vivo
SARS-CoV-2 [12] = assay: Antiviral activity against SARS-CoV-2 infected in HAPEpIC cells at 0.01 MOI assessed as reduction in viral RNA copies by RT-qPCR analysis; type: functional, organism-based; conditions: Severe acute respiratory syndrome coronavirus 2
[13] = biological target: Protein cereblon/Replicase polyprotein 1ab (Severe acute respiratory syndrome coronavirus 2, UniProt P0DTD1+Q96SW2); assay: PROTAC activity at SARS-CoV-2 Main protease/CRBN (unknown origin) in SARS-CoV-2 infected african green monkey Vero cell assessed as inhibition of virus-mediated cytopathic effect measured after 72 hrs; type: cell-based
[14] = Oral bioavailability in Sprague-Dawley rat at 10 mg/kg; type: ADME, organism-based; conditions: in vivo
SARS-CoV-2 [15] = assay: Antiviral activity against SARS-CoV-2 infected in African green monkey Vero E6 cells assessed as inhibition of viral replication incubated by plaque reduction assay; type: functional, organism-based; conditions: Severe acute respiratory syndrome coronavirus 2, Vero C1008
[16] = biological target: T1, Replicase polyprotein 1ab; assay: Inhibition of recombinant SARS-CoV-2 3CLp using fluorogenic substrate by microplate reader
SARS-CoV-2 [17] = assay: Antiviral activity against SARS-CoV-2 Delta; type: functional; conditions: Severe acute respiratory syndrome coronavirus 2, Delta

Sequence of von Hippel-Lindau disease tumor suppressor-SARS-Cov-2 polyprotein (P40337 whole entry, other chains not shown): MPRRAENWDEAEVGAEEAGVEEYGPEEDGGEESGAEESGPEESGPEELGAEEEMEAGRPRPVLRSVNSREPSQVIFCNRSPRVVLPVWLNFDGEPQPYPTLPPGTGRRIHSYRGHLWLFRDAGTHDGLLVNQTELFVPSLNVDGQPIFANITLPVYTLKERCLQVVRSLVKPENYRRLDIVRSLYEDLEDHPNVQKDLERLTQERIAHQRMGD
Sequence of Protein cereblon/Replicase polyprotein 1ab (Q96SW2 whole entry, other chains not shown): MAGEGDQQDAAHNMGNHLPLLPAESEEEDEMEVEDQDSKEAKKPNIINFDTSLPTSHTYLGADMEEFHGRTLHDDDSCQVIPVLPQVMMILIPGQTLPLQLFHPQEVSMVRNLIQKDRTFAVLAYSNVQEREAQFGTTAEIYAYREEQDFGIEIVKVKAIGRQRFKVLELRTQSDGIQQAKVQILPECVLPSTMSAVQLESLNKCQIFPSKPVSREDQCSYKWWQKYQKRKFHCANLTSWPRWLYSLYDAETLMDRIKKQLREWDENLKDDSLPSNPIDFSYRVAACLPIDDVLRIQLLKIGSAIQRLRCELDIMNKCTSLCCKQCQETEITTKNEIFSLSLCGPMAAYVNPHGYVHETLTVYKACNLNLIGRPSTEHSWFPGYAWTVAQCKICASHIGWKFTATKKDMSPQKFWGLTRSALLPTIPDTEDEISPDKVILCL

Compound: CNC(=O)c1cc(C)cc([N+](=O)[O-])c1N1CC[C@]2(CCN(C(=O)c3cncc4cc(O)ccc34)C2)C1
- IC50 [1]: 49500 nM

Compound: CC(C)CCOc1cc(O)c2c(=O)c(O)c(-c3cc(O)c(O)c(O)c3)oc2c1
- IC50 [2]: 1920 nM
- EC50 (SARS-CoV-2 [3]): 31500 nM

Compound: CCOc1cc(O)c2c(=O)c(O)c(-c3cc(O)c(O)c(O)c3)oc2c1
- IC50 [2]: 740 nM
- EC50 (SARS-CoV-2 [3]): 51000 nM

Compound: CC(C)[C@H]1C(=O)N2C[C@]3(C[C@H]2C#N)C(=O)Nc2ccc(cc23)CCCCCN1C(=O)c1cc2c(F)cc(F)cc2[nH]1
- IC50 [2]: < 100 nM
- EC50 (SARS-CoV-2 [4]): < 100 nM

Compound: Cc1ncsc1-c1ccc(CNC(=O)[C@@H]2C[C@@H](O)CN2C(=O)[C@@H](NC(=O)CCOCCOCCOCCn2nnc(COc3ccc(OC(=O)N[C@@H](CC(C)C)C(=O)N[C@H](C=O)C[C@@H]4CCNC4=O)cc3)c2C)C(C)(C)C)cc1
- EC50 [5]: 80 nM

Compound: CNC(=O)c1cc(Br)cc([N+](=O)[O-])c1N[C@@H]1CCC[C@H](NC(=O)c2cncc3cccc(O)c23)C1
- IC50 [1]: 62500 nM

Compound: CC(C)(C)NC(=O)[C@@H](c1cnccn1)N(C(=O)c1ccco1)c1ccc(-c2ccccc2)cc1
- CC50 [6]: > 200000 nM
- IC50 [7]: 280 nM

Compound: CC(C)[C@H]1C(=O)N2C[C@]3(C[C@H]2C#N)C(=O)Nc2ccc(cc23)CCCCCN1C(=O)C1CN(c2ccccc2)N=N1 (stereo partly drawn)
- IC50 [2]: < 100 nM
- EC50 (SARS-CoV-2 [4]): < 100 nM

Compound: Cc1ncsc1-c1ccc(CNC(=O)[C@@H]2C[C@@H](O)CN2C(=O)[C@@H](NC(=O)CCOCCOCCOCCn2nnc(COC3CCC(OC(=O)N[C@@H](CC(C)C)C(=O)N[C@H](C=O)C[C@@H]4CCNC4=O)CC3)c2C)C(C)(C)C)cc1 (stereo partly drawn)
- EC50 [5]: 350 nM

Compound: CC(C)[C@H]1C(=O)N2C[C@]3(C[C@H]2C#N)C(=O)Nc2ccc(cc23)CCCCCN1C(=O)c1cc2ccc(C(F)(F)F)cc2[nH]1
- IC50 [2]: 100 nM
- EC50 (SARS-CoV-2 [4]): < 100 nM

Compound: O=c1c2cccc(Br)c2sn1-c1ccccc1
- IC50 [8]: > 100000 nM

Compound: CC1COP(=O)(Oc2cc(O)c3c(=O)c(O)c(-c4cc(O)c(O)c(O)c4)oc3c2)OC1 (stereo not drawn)
- IC50 [2]: 6620 nM
- EC50 (SARS-CoV-2 [3]): 33400 nM

Compound: O=C1c2c(O)cc(OP(=O)(Oc3ccccc3)Oc3ccccc3)cc2O[C@H](c2cc(O)c(O)c(O)c2)[C@H]1O
- EC50 (SARS-CoV-2 [3]): 9030 nM

Compound: O=c1c(O)c(-c2cc(O)c(O)c(O)c2)oc2cc(OCC3CCCC3)cc(O)c12
- IC50 [2]: 2450 nM
- EC50 (SARS-CoV-2 [3]): 7560 nM

Compound: O=C[C@@H](C[C@H]1CCNC1=O)NC(=O)[C@H]1[C@@H]2CCC[C@@H]2CN1C(=O)COc1ccc(Cl)cc1Cl
- EC50 (SARS-CoV-2 [9]): 540 nM
- bioavailability [10]: 76.2%
- bioavailability [11]: 14.6%
- EC50 (SARS-CoV-2 [12]): 1.1 nM

Compound: CC(C)(C)NC(=O)[C@@H](c1cccnc1)N(C(=O)c1ccno1)c1ccc(-c2ccccc2)cc1
- CC50 [6]: > 200000 nM
- IC50 [7]: 2470 nM

Compound: Cc1ncsc1-c1ccc(CNC(=O)[C@@H]2C[C@@H](O)CN2C(=O)[C@@H](NC(=O)CCOCCOCCOCCn2nnc(COC(=O)N[C@@H](CC(C)C)C(=O)N[C@H](C=O)C[C@@H]3CCNC3=O)c2C)C(C)(C)C)cc1
- EC50 [5]: 950 nM

Compound: CC(C)C[C@H](NC(=O)Oc1ccc(OCc2cn(CCCCCOCC(=O)Nc3cccc4c3C(=O)N(C3CCC(=O)NC3=O)C4=O)nn2)cc1)C(=O)N[C@H](CO)C[C@@H]1CCNC1=O (stereo partly drawn)
- EC50 [13]: 250 nM

Compound: O=C1NCC[C@H]1C[C@H](NC(=O)[C@@H]1[C@H]2CCC[C@H]2CN1C(=O)COc1ccc(Cl)cc1Cl)C(=O)CF
- bioavailability [14]: 55.1%
- EC50 (SARS-CoV-2 [15]): 240 nM
- IC50 [16]: 18 nM

Compound: Cc1ncsc1-c1ccc(CNC(=O)[C@@H]2C[C@@H](O)CN2C(=O)[C@@H](NC(=O)CCC(=O)NCCOCCn2nnc(COc3ccc(OC(=O)N[C@@H](CC(C)C)C(=O)N[C@H](C=O)C[C@@H]4CCNC4=O)cc3)c2C)C(C)(C)C)cc1
- EC50 [5]: 120 nM

Compound: Cc1c(COC2CCC(OC(=O)N[C@@H](CC(C)C)C(=O)N[C@H](C=O)C[C@@H]3CCNC3=O)CC2)nnn1CCOCCNC(=O)CCC(=O)Nc1cccc2c1C(=O)N(C1CCC(=O)NC1=O)C2=O (stereo partly drawn)
- EC50 [13]: 620 nM

Compound: Cc1ncsc1-c1ccc(CNC(=O)[C@@H]2C[C@@H](O)CN2C(=O)[C@@H](NC(=O)CCOCCOCCOCCn2nnc(COc3ccc(OC(=O)N[C@@H](CC(C)C)C(=O)N[C@H](CO)C[C@@H]4CCNC4=O)cc3)c2C)C(C)(C)C)cc1
- EC50 [5]: 750 nM

Compound: O=C1c2c(O)cc(O)cc2O[C@H](c2cc(O)c(O)c(O)c2)[C@H]1O [AMPELOPSIN]
- EC50 (SARS-CoV-2 [3]): 13600 nM

Compound: N#C[C@H](C[C@@H]1CCCNC1=O)NC(=O)[C@H](CC1CC1)NC(=O)c1cc2cccc(Cl)c2[nH]1 [POMOTRELVIR]
- EC90 (SARS-CoV-2 [17]): 78 nM
